Measured values reported in US6969760B2, “Jak kinases and regulation of cytokine signal transduction” (St. Jude Children's Research Hospital, priority 1993, dated 2005).
“And” between values parts separate entries of the source, which are not always exact repeats. Equal entries are not always repeated.

How the values were obtained:
[1] = biological target: T1, Jak2 (Mus musculus, UniProt Q62120); test: In vitro kinase assay with Jak2 immunoprecipitated from cell lysates (32P-gamma-ATP, autoradiography); assay type: biochemical; conditions: genestein at 0.1 mM in the in vitro kinase assay
T1 construct: endogenous in cells; host or cells: mammalian cells stimulated with EPO or IL-3
T1 sequence (Q62120 whole entry): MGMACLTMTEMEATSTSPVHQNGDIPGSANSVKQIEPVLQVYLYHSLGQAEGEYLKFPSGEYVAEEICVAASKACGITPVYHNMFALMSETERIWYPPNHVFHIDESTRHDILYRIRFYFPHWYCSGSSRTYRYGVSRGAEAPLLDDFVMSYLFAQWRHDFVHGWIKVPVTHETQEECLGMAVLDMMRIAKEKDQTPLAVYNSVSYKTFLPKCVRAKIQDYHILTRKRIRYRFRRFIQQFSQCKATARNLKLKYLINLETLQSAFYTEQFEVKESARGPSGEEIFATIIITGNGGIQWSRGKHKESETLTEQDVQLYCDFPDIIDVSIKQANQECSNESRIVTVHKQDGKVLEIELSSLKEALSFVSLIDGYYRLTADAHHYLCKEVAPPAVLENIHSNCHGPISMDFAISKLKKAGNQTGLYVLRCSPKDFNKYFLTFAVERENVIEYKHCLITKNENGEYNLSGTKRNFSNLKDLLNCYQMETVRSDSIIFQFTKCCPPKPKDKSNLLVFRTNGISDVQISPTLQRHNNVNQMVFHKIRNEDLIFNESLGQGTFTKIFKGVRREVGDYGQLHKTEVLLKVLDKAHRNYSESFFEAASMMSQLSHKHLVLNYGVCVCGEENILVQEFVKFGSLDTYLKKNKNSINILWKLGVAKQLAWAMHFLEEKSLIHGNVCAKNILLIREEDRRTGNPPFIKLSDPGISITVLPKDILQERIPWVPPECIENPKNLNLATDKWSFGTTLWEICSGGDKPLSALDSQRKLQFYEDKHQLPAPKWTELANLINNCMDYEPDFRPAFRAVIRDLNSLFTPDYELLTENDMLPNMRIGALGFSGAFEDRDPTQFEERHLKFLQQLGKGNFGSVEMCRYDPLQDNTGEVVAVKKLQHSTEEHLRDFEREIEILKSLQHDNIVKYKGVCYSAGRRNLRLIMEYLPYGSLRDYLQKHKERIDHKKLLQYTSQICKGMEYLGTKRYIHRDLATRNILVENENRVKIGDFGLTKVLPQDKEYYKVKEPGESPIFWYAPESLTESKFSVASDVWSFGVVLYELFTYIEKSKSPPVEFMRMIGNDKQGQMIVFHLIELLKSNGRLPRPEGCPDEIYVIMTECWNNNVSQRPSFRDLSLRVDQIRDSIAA
Protocol: In this assay, purified Jak2 is precipitated from cell lysates using Jak2-specific antisera bound to protein A-sepharose. The immunoprecipitated Jak2 is then washed with kinase buffer (50 mM NaCl, 5 mM MgCl2, 5 mM MnCl2, 0.1 mM Na3VO4, 10 mM HEPES pH 7.4) and subsequently incubated for 30 minutes at room temperature with an equal volume of kinase buffer containing 0.25 mCi/ml ^32P-gamma-ATP. After extensive washing, proteins are eluted with sample buffer for SDS-PAGE and separated on 7% gels. ^32P-containing proteins are then visualized by autoradiography.
Thus, activation of the Jak2 catalytic activity is correlated with the biological activities of these cytokines.

[2] = system: EPO-induced cell proliferation; conditions: cited from earlier work
[3] = system: tyrosine kinase activity associated with the CNTF receptor complex (gp130, LIFRβ); test: In vitro tyrosine kinase activity associated with the purified CNTF receptor complex; assay type: biochemical; conditions: compared with CNTF-treated intact cells
Protocol: Cell lines were passaged and maintained as previously described (Ip et al., Cell 69:1121-1132 (1992). COS cell transfections were carried out by a DEAE protocol (Davis et al., Science 260:1805-1808 (1993)). Plates of cells were starved in serum-free RPMI medium for 2-4 hours, then stimulated with 50 ng/ml of the indicated factor for 5 minutes. Cells were harvested and lysed as previously described (Stahl et al., J. Biol. Chem. 268:7628-7631 (1993)), except that 1% Brij 96 (Sigma) or 1% NP-40 (Boehringer) was used as indicated. Immunoprecipitation, electrophoresis, and anti-phosphotyrosine immunoblotting with monoclonal antibody 4G10 (Upstate Biotechnology) and detection via enhanced chemiluminescence (Amersham) was carried out as previously described (Id). For in vitro kinase assays, the washed beads were incubated for 15 min at room temperature in 20 mM Hepes (pH 7.2), 10 mM MnCl2, 30 mM sodium orthovanadate and 10 MCi of (g-^32P)ATP (NEN DUPONT). Electrophoresis sample buffer was added and the samples were boiled, subjected to SDS PAGE, and electroblotted to PVDF. The membrane was then incubated in 1 M NaOH at 65° C. for 60 min to destroy serine and threonine phosphate before autoradiography.

[4] = system: Jak2; test: GH-dependent tyrosyl phosphorylation of Jak2 (αJak2 immunoprecipitation, αPY immunoblot) in 3T3-F442A fibroblasts; assay type: cell-based
Protocol: Jak2 is a tyrosine kinase of the correct size (Mr of ˜130,000; see example 1) to be the GHR-associated kinase and was therefore tested for its ability to be phosphorylated in response to GH. Solubilized proteins from GH-treated 3T3-F442A fibroblasts were immunoprecipitated using antiserum to Jak2 (αJak2) and analyzed by anti-phosphotyrosine antibody (αPY) immunoblot. Cells were incubated with varying physiological concentrations of GH in ranging in 10-fold increments from 0.5 ng/ml to 500 ng/ml (the standard concentration used) for 0, 0.5, 5, 50, and 60 minutes.
Cells were grown to confluence and deprived of serum overnight as described previously (Wang, X. et al., J. Biol. Chem. 268:3573-3579 (1993)). Cells were incubated for the indicated times with hormone or growth factor as indicated at 37° C. in 95% air, 5% CO2, rinsed with three changes of ice-cold 10 mM sodium phosphate (pH 7.4), 137 mM NaCl, 1 mM Na3VO4, and scraped in lysis buffer (50 mM Tris (pH 7.5), 0.1% Triton X-100, 137 mM NaCl, 2 mM EGTA, 1 mM Na3VO4, 1 mM phenylmethylsulfonyl fluoride, 10 μg/ml aprotinin, and 10 μg/ml leupeptin) on ice. Cell lysates were centrifuged at 12,000×g for 10 min, and the resulting supernatants were incubated on ice 90 min with the indicated antibody. […]

Compound: O=c1c(-c2ccc(O)cc2)coc2cc(O)cc(O)c12 [genestein]
- reduction in the tyrosine kinase activity of Jak2 [1]: 2 fold
- effect on ability of EPO to stimulate cell growth [2]: inhibit the ability of EPO to stimulate cell growth

Compound: CN[C@@H]1C[C@H]2O[C@@](C)([C@@H]1OC)n1c3ccccc3c3c4c(c5c6ccccc6n2c5c31)C(=O)NC4 [staurosporine]
- sensitivity of receptor-associated in vitro kinase activity to staurosporine [3]: same sensitivity to staurosporine as that observed upon addition of CNTF to intact cells

Compound: GH: Recombinant human GH (hGH) provided by Eli Lilly
- earliest time at which GH-dependent tyrosyl phosphorylation of Jak2 was clearly evident [4]: 30 s
- lowest GH concentration at which tyrosyl phosphorylation of Jak2 was clearly evident [4]: 5.0 ng/ml and 230 pM
